Target: T1, human plasma renin (Homo sapiens, UniProt P00797)
T1 construct: from tissue; host or cells: human plasma
T1 sequence (P00797 67-406): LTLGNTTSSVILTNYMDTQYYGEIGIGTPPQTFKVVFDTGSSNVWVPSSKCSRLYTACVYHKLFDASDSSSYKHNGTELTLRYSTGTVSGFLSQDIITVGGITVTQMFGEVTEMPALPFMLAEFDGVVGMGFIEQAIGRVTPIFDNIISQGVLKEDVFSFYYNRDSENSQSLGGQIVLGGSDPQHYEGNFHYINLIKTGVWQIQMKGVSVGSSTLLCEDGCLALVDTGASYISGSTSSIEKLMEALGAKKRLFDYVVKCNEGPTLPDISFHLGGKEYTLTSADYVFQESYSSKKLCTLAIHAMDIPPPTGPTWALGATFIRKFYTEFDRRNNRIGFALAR
Experiment: Renin inhibiting activities (human plasma, angiotensin I by radio immunoassay)
Assay type: biochemical
Details: pH7.4, 37° C., one hour, read-out: IC50 (50 % inhibition concentrations), renin inhibiting activity
Procedure: To 156 μl of a 0.2M sodium phosphate buffer solution (pH7.4), 40 μl of a solution mixture of 34 mM 8-hydroxyquinoline and 100 mM disodium ethylenediamine tetraacetate, 4 μl of dimethyl sulfoxide or a dimethyl sulfoxide solution of test compound and 200 μl of human plasma were added and reacted at 37° C. for one hour. Then, pepstatin was added thereto to terminate the reaction, and the amount of the resulting angiotension I was measured by radio immunoassay whereby the inhibiting activity was determined.

| Structure (SMILES) | IC50 [nM] |
| --- | --- |
| CCCC[C@H](NC(=O)[C@H](Cc1cccc2ccccc12)CS(=O)(=O)CC(O)COC(=O)C(C)(C)C)C(=O)N[C@@H](CC1CCCCC1)[C@@H](O)[C@@H](O)CN1CCOCC1 (mixture of isomers) [Example 2, (2S,3R,4S)-4-{L-N-[(2S)-3-[(2RS)-3-pivaloyloxy-2-hydroxypropyl]sulfonyl-2-(1-naphthylmethyl)propionyl]norleucyl}amino-5-cyclohexyl-1-morpholino-2,3-pentanediol] | 7.2 |
| CCCC[C@H](NC(=O)[C@H](Cc1cccc2ccccc12)C[S+]([O-])CC(COC(C)=O)OC(C)=O)C(=O)N[C@@H](CC1CCCCC1)[C@@H](O)[C@@H](O)CN1CCOCC1 (mixture of isomers) [Example 6 (having a high Rf value), (2S,3R,4S)-4-{L-N-[(2S)-3-[(2RS)-2,3-diacetoxypropyl]sulfinyl-2-(1-naphthylmethyl)propionyl]norleucyl}amino-5-cyclohexyl-1-morpholino-2,3-pentanediol] | 6 |
| CCCC[C@H](NC(=O)[C@H](Cc1cccc2ccccc12)C[S+]([O-])CC(COC(C)=O)OC(C)=O)C(=O)N[C@@H](CC1CCCCC1)[C@@H](O)[C@@H](O)CN1CCOCC1 (mixture of isomers) [Example 6 (having a low Rf value), (2S,3R,4S)-4-{L-N-[(2S)-3-[(2RS)-2,3-diacetoxypropyl]sulfinyl-2-(1-naphthylmethyl)propionyl]norleucyl}amino-5-cyclohexyl-1-morpholino-2,3-pentanediol] | 4.1 |
| CCCC[C@H](NC(=O)[C@H](Cc1cccc2ccccc12)CS(=O)(=O)CC(COC(=O)CC)OC(=O)CC)C(=O)N[C@@H](CC1CCCCC1)[C@@H](O)[C@@H](O)CN1CCOCC1 (mixture of isomers) [Example 8, (2S,3R,4S)-4-{L-N-[(2S)-3-[(2RS)-2,3-dipropionyloxypropyl]sulfonyl,-2-(1-naphthylmethyl)propionyl]norleucyl}amino-5-cyclohexyl-1-morpholino-2,3-pentanediol] | 3.3 |
| CCCC[C@H](NC(=O)[C@H](Cc1cccc2ccccc12)CS(=O)(=O)CC(O)COC(=O)CC)C(=O)N[C@@H](CC1CCCCC1)[C@@H](O)[C@@H](O)CN1CCOCC1 (mixture of isomers) [Example 12, (2S,3R,4S)-4-{L-N-[(2S)-3-[(2RS)-3-propionyloxy-2-hydroxypropyl]sulfonyl-2-(1-naphthylmethyl)propionyl]norleucyl}amino-5-cyclohexyl-1-morpholino-2,3-pentanediol] | 4.3 |
| CCCC[C@H](NC(=O)[C@H](Cc1cccc2ccccc12)CS(=O)(=O)CC(COC(=O)CC)OC(C)=O)C(=O)N[C@@H](CC1CCCCC1)[C@@H](O)[C@@H](O)CN1CCOCC1 (mixture of isomers) [Example 13, (2S,3R,4S)-4-{L-N-[(2S)-3-[(2RS)-2-acetoxy-3-propionyloxypropyl]sulfonyl-2-(1-naphthylmethyl)propionyl]norleucyl}amino-5-cyclohexyl-1-morpholino-2,3-pentanediol] | 2 |
| CCCC[C@H](NC(=O)[C@H](Cc1cccc2ccccc12)CS(=O)(=O)CC(COC(=O)CC)OC)C(=O)N[C@@H](CC1CCCCC1)[C@@H](O)[C@@H](O)CN1CCOCC1 (mixture of isomers) [Example 14, (2S,3R,4S)-4-{L-N-[(2S)-3-[(2RS)-2-methoxy-3-propionyloxypropyl]sulfonyl-2-(1-naphthylmethyl)propionyl]norleucyl}amino-5-cyclohexyl-1-morpholino-2,3-pentanediol] | 2 |
| CCCC[C@H](NC(=O)[C@H](Cc1ccccc1)CS(=O)(=O)CC(COC(C)=O)OC(C)=O)C(=O)N[C@@H](CC1CCCCC1)[C@@H](O)[C@@H](O)CN1CCOCC1 (mixture of isomers) [Example 15, (2S,3R,4S)-4-{L-N-[(2S)-3-[(2RS)-2,3-diacetoxypropyl]sulfonyl-2-benzylpropionyl]norleucyl}amino-5-cyclohexyl-1-morpholino-2,3-pentanediol] | 7.3 |
| CCCC[C@H](NC(=O)[C@@H](CSCC(COC(C)=O)OC(C)=O)Cc1ccccc1)C(=O)N[C@@H](CC1CCCCC1)[C@@H](O)[C@@H](O)CN1CCOCC1 (mixture of isomers) [Example 16, (2S,3R,4S)-4-{L-N-[(2S)-3-[(2RS)-2,3-diacetoxypropyl]thio-2-benzylpropionyl]norleucyl}amino-5-cyclohexyl-1-morpholino-2,3-pentanediol] | 6 |
| CCCC[C@H](NC(=O)[C@H](Cc1ccccc1)CS(=O)(=O)CC(COC(=O)CC)OC(=O)CC)C(=O)N[C@@H](CC1CCCCC1)[C@@H](O)[C@@H](O)CN1CCOCC1 (mixture of isomers) [Example 17, (2S,3R,4S)-4-{L-N-[(2S)-3-[(2RS)-2,3-dipropionyloxypropyl]sulfonyl-2-benzylpropionyl]norleucyl}amino-5-cyclohexyl-1-morpholino-2,3-pentanediol] | 8.3 |
| CCCC[C@H](NC(=O)[C@@H](CSCC(COC(C)=O)OC)Cc1cccc2ccccc12)C(=O)N[C@@H](CC1CCCCC1)[C@@H](O)[C@@H](O)CN1CCOCC1 (mixture of isomers) [Example 27, (2S,3R,4S)-4-{L-N-[(2S)-3-[(2RS)-3-acetoxy-2-methoxypropyl]thio-2-(1-naphthylmethyl)propionyl]norleucyl}amino-5-cyclohexyl-1-morpholino-2,3-pentanediol] | 2.2 |
| CCCC[C@H](NC(=O)[C@H](Cc1cccc2ccccc12)CS(=O)(=O)CC(COC)OC(C)=O)C(=O)N[C@@H](CC1CCCCC1)[C@@H](O)[C@@H](O)CN1CCOCC1 (mixture of isomers) [Example 28, (2S,3R,4S)-4-{L-N-[(2S)-3-[(2RS)-2-acetoxy-3-methoxypropyl]sulfonyl-2-(1-naphthylmethyl)propionyl]norleucyl}amino-5-cyclohexyl-1-morpholino-2,3-pentanediol] | 1.9 |
| CCCC[C@H](NC(=O)[C@H](Cc1cccc2ccccc12)CS(=O)(=O)CC(COC(C)=O)OC)C(=O)N[C@@H](CC1CCCCC1)[C@@H](O)[C@@H](O)CN1CCOCC1 (mixture of isomers) [Example 29, (2S,3R,4S)-4-{L-N-[(2S)-3-[(2RS)-3-acetoxy-2-methoxypropyl]sulfonyl-2-(1-naphthylmethyl)propionyl]norleucyl}amino-5-cyclohexyl-1-morpholino-2,3-pentanediol] | 0.76 |
| CCCC[C@H](NC(=O)[C@H](Cc1cccc2ccccc12)CS(=O)(=O)CC(COC(C)=O)OCC)C(=O)N[C@@H](CC1CCCCC1)[C@@H](O)[C@@H](O)CN1CCOCC1 (mixture of isomers) [Example 43, (2S,3R,4S)-4-{L-N-[(2S)-3-[(2RS)-3-acetoxy-2-ethoxypropyl]sulfonyl-2-(1-naphthylmethyl)propionyl]norleucyl}amino-5-cyclohexyl-1-morpholino-2,3-pentanediol] | 2.4 |
| CCCC[C@H](NC(=O)[C@H](Cc1cccc2ccccc12)C[S+]([O-])c1ccc(OC(C)=O)cc1)C(=O)N[C@@H](CC1CCCCC1)[C@@H](O)[C@@H](O)CN1CCOCC1 (single isomer, unassigned) [Example 20 (having a low Rf value)] | 4 |
| CCCC[C@H](NC(=O)[C@H](Cc1cccc2ccccc12)CS(=O)(=O)C1CCC(OC(C)=O)C1)C(=O)N[C@@H](CC1CCCCC1)[C@@H](O)[C@@H](O)CN1CCOCC1 (single isomer, unassigned) [Example 33 (having a high Rf value)] | 2.2 |

Source: patent publication US5424309A, “N-substituted acylamino acid compounds, process for their production and their use” (Banyu Pharmaceutical Co., Ltd., priority 1988, dated 1995)
